# US20150315179A1, “COMPOUNDS AND METHODS OF TREATING NEUROLOGICAL DISORDERS” (Torrey Pines Institute For Molecular Studies, priority 2014, published 2015)
# pKd: −log10 of the molar value.
# Legend:
# TrkA receptors = TrkA receptors (Homo sapiens, UniProt P04629); experiment: Octet Red label-free binding; conditions: biotinylated TrkA on SSA biosensors
# Method: FIGS. 9.1A and B illustrate that THPI-244 directly binds TrkA receptors as determined by label-free, real-time Octet Red detection system. FIG. 9.1A illustrates that biotinylated TrkA was loaded on to super-streptavidin (SSA) biosensors and after obtaining the baseline, were incubated with THPI-244 which dose-dependently bound TrkA receptors (Association). Incubation with kinetics buffer rapidly dissociated the binding.
# [1] = system: sAPPα levels, human primary neurons transiently transfected with APP751 with Swedish mutation; experiment: sAPPα ELISA, human primary neurons transfected with APP751; format: cell-based
# Method: (§1) (1). […] Therefore, we first used fibroblasts derived from AD patients (AG06263C, Coriell Cell repository, supported by NINDS/NIH) and exposed to THPI-244 for 24 h and measured sAPPα release by ELISA as done above for NT2 cells. […] We also confirmed dose-dependent effect of THPI-244 on sAPPα levels in human primary neurons transiently transfected with APP751 with Swedish mutation which is trafficked differently from WT APP and releases more sAPPα. Human neurons were grown on specially coated glass coverslips (cat # GG-18-PDL, NeuVitro, Germany). We could reproducibly achieve nearly 30% transfection efficiency using a nanoparticle based transfection reagent called Neuromag (cat # NM150299, OZ Biosciences, France).
# [2] = system: Aβ42 levels, NT2 cells stably expressing APP751; experiment: Aβ42 ELISA, NT2 stable cells; format: cell-based, human
# Method: (§2) (5). To confirm the effect of THPI-244 on sAPPα levels in a neuronal cell line and by a tertiary assay, we exposed human Neuron-committed Teratocarcinoma cell line (NT2) stably expressing human APP751 to different concentrations of THPI-244 for 24 h and compared with that of Bryostatin, a classical activator of PKC known to stimulate sAPPα release. […] Levels of sAPPα were measured by ELISA using commercially available kit (cat #27734, IBL-America, Minneapolis, Minn., USA). […] Similar biphasic effect of Bryostatin was confirmed for Aβ42 also, measured again in NT2 stable cells by ELISA (cat # KHB3441, Life Technologies, Grand Island, N.Y., USA). Consistent with sAPPα, THPI-244 decreased Aβ42 levels dose-dependently starting from 50 nM (28%, p<0.05) to 2000 nM (64%, p<0.001) (n=4 independent experiments) (FIG. 1.7). Thus THPI-244 increased non-amyloidogenic processing of APP in NT2 cells.
# BBB of THPI-244 analogs = experiment: BBB of THPI-244 analogs
# Description: (§3) The following table illustrates Chemical structures and properties of THPI-244 analogs selected out of 37 analogs, and each have significant sAPPα increasing activity. Toxicity is the minimum dose for toxicity.
# [3] = system: sAPPα release, NT2 cells stably expressing human APP751; experiment: sAPPα ELISA, NT2 cells expressing APP751; format: cell-based; conditions: 24 h
# Method: as §2
# [4] = system: sAPPα release from 7WD10 cells; experiment: AlphaLISA sAPPα release assay (pilot screen); format: cell-based; conditions: 5 μM, 7WD10 cells, 24 h
# Method: Pilot screen of AlphaLISA sAPPα release assay. 8 μL of assay media (DMEM supplemented with 10% FBS and 1× Penicillin/Streptomycin) containing 20,000 cells were added to all wells of the assay plate, except column 1 where only media was added. Plates were incubated for 4 h at 37° C., 5% CO2, 95% RH after which 80 nL of test compounds in DMSO or DMSO alone were added to respective wells using a pin tool device (VP Scientific, San Diego). After 24 h of incubation at 37° C., 5% CO2, 95% RH, sAPPα AlphaLISA beads were added in 10 μL of buffer, equilibrated for 1 h, and AlphaLISA signal was measured using a Biotek H4 Synergy microplate reader (Biotek Inc). Three parameters were calculated on a per-plate basis: (a) the signal-to-background ratio (S/B); (b) the coefficient for variation [CV; CV=(standard deviation/mean)×100)] for all compound test wells; and (c) the Z′-factor [31]. Nominally active compounds from the pilot screen were determined using mean plus 3 times the standard deviation (Mean+3SD) was used as the cut-off.
# [5] = system: fibroblasts derived from AD patients; experiment: MTT cytotoxicity, AD fibroblasts; format: cell-based, human; conditions: 24 h exposure
# Description: (4). Toxicity is another crucial limitation for successful drug development as evidenced by recent failure of γ-secretase inhibitors at the clinical trials due to cytotoxicity (Cole, S L and Vassar, R, 2007, Mol. Neurodeg. 2, 22-47; Doody R S, et al. 2013. N. Eng. J. Med. 369, 341-350). Therefore we measured cytotoxicity by very sensitive MTT assay as described previously (Hayes, C D., et al. 2013, BMC Medicine. 26, 11.81; 23; Hayes, C D., et al., 2012, PLoS One 7, e45841) in human primary neurons obtained from a commercial source (cat #1520, ScienCell, Carlsbad, Calif., USA) and fibroblasts derived directly from A D patients (cat# AG06263C, Coriell Institute Cell repository supported by NINDS, NIH). […] We directly used human neurons for toxicity studies so as to reduce the chances of future failure at a later stage due to toxicity.
# [6] = Brain levels after i.p. injection (LC-MS); format: in vivo, mouse
# Method: (3). Since blood brain barrier (BBB) is the main obstacle for drug development for any CNS disorders, we first wanted to verify whether compound THPI-244 enters the brain. We followed protocols exactly as published previously from our laboratory (Hayes, C D et al., 2013, BMC Med. 26, 11.81). […] We generated a standard graph (FIG. 1.4 (middle)) to be used in the quantitation of THPI-244 in the brain after intraperitoneal (i.p.) injections at 0.2 mg/kg body weight.
# C57BL/6 mice = experiment: Lethal dose (LD50) study in mice; format: in vivo, mouse
# Description: Wild-type (WT) C57BL/6 mice aged about 6 months were used in the study. The compound THPI-244 was initially dissolved in 100% DMSO and then diluted to final 10% DMSO with phosphate buffered saline (PBS). […] Among these 6 mice, 3 mice received repeated injections (i.p) of compound THPI-244 for 5 days.
# [7] = system: sAPPα release, fibroblasts derived from AD patients; experiment: sAPPα ELISA, AD fibroblasts; format: cell-based, human; conditions: 24 h
# Method: as §1
# TrkA = TrkA increase by THPI-244 analogs; format: cell-based
# Description: as §3
# [8] = i.p. 0.2 mg/kg body weight, mouse
# Chain of TrkA receptors (P04629 33-796): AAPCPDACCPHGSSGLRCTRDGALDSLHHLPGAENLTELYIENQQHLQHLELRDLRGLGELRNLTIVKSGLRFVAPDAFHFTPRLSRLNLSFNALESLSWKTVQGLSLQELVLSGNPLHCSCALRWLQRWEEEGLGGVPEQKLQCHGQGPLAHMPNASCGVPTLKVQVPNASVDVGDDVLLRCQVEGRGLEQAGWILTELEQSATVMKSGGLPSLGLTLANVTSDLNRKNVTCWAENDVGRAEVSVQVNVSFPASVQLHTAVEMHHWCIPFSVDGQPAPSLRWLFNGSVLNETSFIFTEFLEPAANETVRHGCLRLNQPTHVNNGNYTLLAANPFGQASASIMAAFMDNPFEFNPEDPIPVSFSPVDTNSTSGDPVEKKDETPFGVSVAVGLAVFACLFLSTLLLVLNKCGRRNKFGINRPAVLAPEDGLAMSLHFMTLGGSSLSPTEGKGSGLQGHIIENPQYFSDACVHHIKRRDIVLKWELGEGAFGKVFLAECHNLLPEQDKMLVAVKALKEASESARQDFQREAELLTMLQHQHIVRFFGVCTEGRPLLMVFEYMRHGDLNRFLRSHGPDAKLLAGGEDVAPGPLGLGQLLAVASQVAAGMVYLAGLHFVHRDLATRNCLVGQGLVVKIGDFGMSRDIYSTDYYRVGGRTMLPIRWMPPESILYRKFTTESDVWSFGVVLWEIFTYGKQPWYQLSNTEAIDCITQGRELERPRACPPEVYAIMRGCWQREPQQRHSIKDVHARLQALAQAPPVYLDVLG
smiles,measurement,setting,value
O=C(Cc1ccccc1)N[C@H](CNc1nc(CN2CCN(C(=O)Cc3ccccc3)CC2)cs1)c1ccccc1 [THPI-244],pKd,TrkA receptors,5.28
same,increase of sAPPα levels,[1]; 50 nM,171%
same,increase of sAPPα levels,[1]; 2000 nM,301%
same,decrease of Aβ42 levels,[2]; 50 nM,28%
same,decrease of Aβ42 levels,[2]; 2000 nM,64%
same,concentration from which Aβ42 decrease is significant,[2]; ELISA,50 nM
same,% BBB,BBB of THPI-244 analogs,0.1%
same,concentration from which sAPPα increase is significant,[3],50 nM
same,increase of Alpha signal (sAPPα release),[4],~2 fold
same,concentration from which cytotoxicity is significant,[5],50 µM
same,amount remaining in the brain at 240 min,[6]; [8],negligible amount
same,time to maximum levels in the brain,[6]; [8],≤ 5 min
same,blood-brain barrier passage,"[6]; i.p. administration, mouse brain",passes through the blood-brain barrier
same,death,"C57BL/6 mice; 100 mg/kg i.p., 6 mice, monitored for 5 days",did not result in the death of any of the 6 mice
same,survival,"C57BL/6 mice; 200 mg/kg, single mouse",survived without visible ill effects
same,lethal effect,"C57BL/6 mice; repeated i.p. injections for 5 days, 3 mice",None of the mice showed any lethal effect
same,concentration from which sAPPα increase is significant,[7],50 nM
same,% TrkA ↑,TrkA,99%
